Reference: PMC11272821, “Mechanistic safety assessment via multi-omic characterisation of systemic pathway perturbations following in vivo MAT2A inhibition” (Archives of Toxicology, 2024)
pKi: −log10 of the molar value.

Tests used:
[1] = Liver mass spectrometry imaging; type: in vivo, rat
Method: Liver MSI. Tissue samples were snap frozen in dry ice cooled isopentane. Frozen samples were embedded in a HPMA/PVP hydrogel as previously detailed (Dannhorn et al. 2020). Tissue sectioning was performed using a CM1950 cryostat microtome (Leica Biosystems, Nussloch, Germany) at a section thickness of 10 µm. The tissue sections for desorption electrospray ionisation MSI (DESI-MSI), and matrix assisted laser desorption ionisation (MALDI-MSI) were immediately thaw mounted onto Superfrost or indium tin oxide coated microscope slides respectively. Tissue sections for positive ion mode DESI-MSI were washed with xylene for 1 minute to reduce ion suppression of metabolites of interest.
MSI analysis of most metabolites was performed by DESI-MSI and analysis of glutathione and glutathione disulphide was performed with MALDI-MSI. DESI-MSI analysis was carried out using a Q-Exactive mass spectrometer (Thermo Scientific, Bremen, Germany) equipped with an automated 2D-DESI ion source (Prosolia Inc., Indianapolis, IN, USA). Experiments were carried out in both positive and negative mode with a mass range up to a m/z of 1000, with a nominal mass resolution of 70,000. The injection time was fixed to 150 ms resulting in a scan rate of 3.8 pixel/s. […]

[2] = Plasma toxicokinetic analysis after twice daily oral dosing; type: in vivo; conditions: rat, n = 5
Method: All in vivo experimental procedures were conducted in accordance with United Kingdom legislation (Animals (Scientific Procedures) Act, 1986) and were compliant with the ARRIVE guidelines. 8–10 week old male (210–230 g) Crl:WI Han Wistar rats (Charles River Laboratories Ltd, UK) were acclimatised to the facility for 10 days and then randomised to groups based on bodyweight.
A whole blood sample (32 µL) was collected via a tail vein prick into a K2EDTA treated capillary tube, centrifuged at 1,500 g for 10 min at 4 °C, and plasma collected using a micropipette (non-EDTA Ref.no. 172292, Vitrex Medical A/S, Denmark). Samples were collected on Day 1 and Day 7 at 1 h, 2 h, 4 h, 8 h (pre-second dose), 10 h and 24 h post the first dose.
Calibration and quality control samples were prepared in rat plasma with a target concentration range for quantification of 0.1 – 100 µmol/L. Sample preparation: 8 µl of plasma were diluted in 92 µl of 5% (w/v) bovine serum albumin in phosphate buffer and gently shaken for 10 min before 5 min centrifugation at 2400 g at 4°C. 25 µL were transferred to new tubes and 150 µl of acetonitrile containing an internal standard were added for protein precipitation. After thorough mixing and centrifugation for 5 min at 2400 g and 4°C, 75 µl of supernatant were transferred into new tubes and diluted in 150 µL water/HCOOH (100:0.2, v/v) then thoroughly vortexed and again centrifuged for 5 min at 2400 g and 4°C. 1.5 µl of the supernatant were injected for LC-MS/MS analysis utilizing an Acquity UPLC BEH C18, 2.1x50 […], 1.7 µ column at 60° C. Mobile phase A: Acetonitrile/HCOOH (100/0.2, v/v) and B: water/HCCOH (100/0.2, v/v). Flow rate: 0.75 mL/min.

SAM = assay: Targeted LC–MS of SAM in plasma, liver, brain and heart; type: in vivo, rat
Method: SAM and methionine levels were quantified in plasma samples and tissues using Ultra Performance Liquid Chromatography (UPLC) coupled with quantitative MS in ESI positive ion mode as described in Supplementary M&M.
For LCMS analysis, standard curves were spiked to give a calibrated range of 1.0 – 1000 nM for SAM and 1.0 – 2000 for methionine. 5 µL of standard spike solution was added to 45 µL of ACN/MeOH/H2O (40/40/20 v/v/v) and 2.5 µL of deuterated citrulline is added as an internal standard. A further calibration curve was prepared with 5 µL blank mouse plasma, 5 µL of standard and 40 µL of 40:40:20 Acetonitrile:Methanol:0.5% formic acid (Aq) with 2.5 µL of deuterated citrulline was used to investigate matrix suppression effects. Blank plasma was also diluted 1:10 with ACN/MeOH/H2O (40/40/20 v/v/v) and was also analysed to establish systemic biomarker levels.
Metabolomic sample preparation and analysis. Tissue samples (liver, brain, heart) were extracted with 1 mL of ACN/MeOH/H2O 40/40/20 v/v/v per 100 mg material in a PrecellysCK28K-2 mL tube. Tissues were homogenised/extracted in 3x20 sec shake at 5500 rpm and centrifuged for 5 min at 10,621g. After centrifugation a maximum of 800 µL clear supernatant was transferred to cryovials and the same amount of extraction solvent used in the first step was added to tissue precipitate. Extraction procedure was repeated as above and clear supernatants combined in the same cryovial and vial labelled as polar metabolite extract. On the remaining tissue pellet 1ml (per100mg tissue material) of Butanol/MeOH 3/1v/v was added and the above extraction sequence applied. Resulted clear supernatant transferred to a clean cryovial and labelled as lipid extract. All samples kept at the lowest available temperature (0 °C) throughout the extraction process and stored at -80 °C until further analysis.

NK1 neurokinin receptor = biological target: T1, NK1 neurokinin receptor (Homo sapiens, UniProt P25103); assay: Radioligand binding assay
T1 construct: Eurofins
T1 sequence (P25103 whole entry): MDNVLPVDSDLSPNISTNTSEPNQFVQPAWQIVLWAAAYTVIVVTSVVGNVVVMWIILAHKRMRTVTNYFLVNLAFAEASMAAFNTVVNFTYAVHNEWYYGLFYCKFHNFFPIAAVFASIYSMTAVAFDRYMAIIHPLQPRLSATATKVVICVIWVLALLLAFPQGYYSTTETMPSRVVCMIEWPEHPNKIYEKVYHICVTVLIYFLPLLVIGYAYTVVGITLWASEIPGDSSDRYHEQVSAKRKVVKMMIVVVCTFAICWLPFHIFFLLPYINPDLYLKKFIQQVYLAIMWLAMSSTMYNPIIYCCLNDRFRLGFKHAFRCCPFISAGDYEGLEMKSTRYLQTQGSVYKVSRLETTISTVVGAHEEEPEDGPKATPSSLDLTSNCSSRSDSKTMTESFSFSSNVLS
Method: (§1) Secondary pharmacology assays were performed at Eurofins using standard experimental techniques against a total of 86 targets across a broad pharmacological space. Assay details along with experimental protocols are described at https://www.eurofinsdiscoveryservices.com. […] Assays measuring substrate turnover or phosphorylation by isolated proteins were used for kinase and enzyme targets, allowing direct determination of the mode of action of the compounds. […] Assays were run in eight points concentration response mode with half log dilutions and IC50, EC50 or Ki (Cheng and Prusoff [1973]) values determined.

[3] = biological target: T2, Glucocorticoid Receptor NR3C1 (Homo sapiens, UniProt P04150); assay: Radioligand binding assay
T2 construct: Eurofins
T2 sequence (P04150 whole entry): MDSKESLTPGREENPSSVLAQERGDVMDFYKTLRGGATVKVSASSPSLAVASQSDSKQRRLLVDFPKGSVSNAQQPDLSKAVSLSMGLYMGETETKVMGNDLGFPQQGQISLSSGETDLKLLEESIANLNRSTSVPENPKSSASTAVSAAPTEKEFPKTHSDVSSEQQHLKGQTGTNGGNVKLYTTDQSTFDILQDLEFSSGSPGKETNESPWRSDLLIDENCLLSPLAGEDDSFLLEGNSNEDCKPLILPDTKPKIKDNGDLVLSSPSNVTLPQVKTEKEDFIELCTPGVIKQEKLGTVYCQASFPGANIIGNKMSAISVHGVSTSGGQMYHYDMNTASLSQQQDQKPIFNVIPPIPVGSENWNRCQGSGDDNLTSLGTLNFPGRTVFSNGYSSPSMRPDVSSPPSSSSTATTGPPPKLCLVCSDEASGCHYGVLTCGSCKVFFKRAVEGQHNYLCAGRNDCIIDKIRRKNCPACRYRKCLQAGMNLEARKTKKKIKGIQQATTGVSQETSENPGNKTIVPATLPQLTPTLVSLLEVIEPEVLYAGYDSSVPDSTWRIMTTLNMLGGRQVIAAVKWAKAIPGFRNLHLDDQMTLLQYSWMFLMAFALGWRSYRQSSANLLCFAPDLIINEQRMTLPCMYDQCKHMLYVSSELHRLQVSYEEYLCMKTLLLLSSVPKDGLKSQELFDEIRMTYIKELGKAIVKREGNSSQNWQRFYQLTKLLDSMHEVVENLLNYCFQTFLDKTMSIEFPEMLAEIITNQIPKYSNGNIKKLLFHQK
Method: as §1

Cn1cc2cc(-c3cc4[nH]nc(C5CC5)c4n(-c4ccc(OC(F)F)cc4)c3=O)ccc2n1 [AZ’9567]
distribution of the compound in liver sections [1]: mostly homogenously across the liver with hotspots of increased abundance in the blood vessels
Free AUC24h ([2]; 3 mg/kg BID, day 1, mean ± SD): 0.69 ± 0.07 µM·h
Free Cmax ([2]; 3 mg/kg BID, day 1, mean ± SD): 40 ± 4 nM
Free Cmin24h ([2]; 3 mg/kg BID, day 1, mean ± SD): 10 ± 1 nM
Free AUC24h ([2]; 3 mg/kg BID, day 7, mean ± SD): 0.76 ± 0.11 µM·h
Free Cmax ([2]; 3 mg/kg BID, day 7, mean ± SD): 50 ± 10 nM
Free Cmin24h ([2]; 3 mg/kg BID, day 7, mean ± SD): 10 ± 2 nM
Free AUC24h ([2]; 10 mg/kg BID, day 1, mean ± SD): 2.6 ± 1.1 µM·h
Free Cmax ([2]; 10 mg/kg BID, day 1, mean ± SD): 210 ± 60 nM
Free Cmin24h ([2]; 10 mg/kg BID, day 1, mean ± SD): 40 ± 20 nM
Free AUC24h ([2]; 10 mg/kg BID, day 7, mean ± SD): 3.9 ± 0.70 µM·h
Free Cmax ([2]; 10 mg/kg BID, day 7, mean ± SD): 270 ± 110 nM
Free Cmin24h ([2]; 10 mg/kg BID, day 7, mean ± SD): 80 ± 30 nM
Free AUC24h ([2]; 30 mg/kg BID, day 1, mean ± SD): 12 ± 1.1 µM·h
Free Cmax ([2]; 30 mg/kg BID, day 1, mean ± SD): 870 ± 190 nM
Free Cmin24h ([2]; 30 mg/kg BID, day 1, mean ± SD): 140 ± 40 nM
Free AUC24h ([2]; 30 mg/kg BID, day 7, mean ± SD): 9.9 ± 2.2 µM·h
Free Cmax ([2]; 30 mg/kg BID, day 7, mean ± SD): 680 ± 190 nM
Free Cmin24h ([2]; 30 mg/kg BID, day 7, mean ± SD): 150 ± 50 nM
plasma SAM decrease, lower than the vehicle controls (SAM; 30 mg/kg BID): 70%
brain SAM change (SAM; 3 and 10 mg/kg BID): no significant change
heart SAM decrease (SAM; all dose levels): ~90%
liver SAM decrease (SAM; all doses): ~ 45%
pKi (NK1 neurokinin receptor): 4.99
pKi [3]: 4.61
